Laboratory results reported in US20240368150A1 (Hoffmann-La Roche Inc., priority 2021, published 2024).
Where two headings read alike, the source gives them in different places.

How the values were obtained:
primary human T-cells [1] = system: primary human T-cells
primary human T-cells [2] = experiment: Proliferation assay after 5 days (CellTiter-Glo, CD3 stimulation; PBS counter screen); format: cell-based; conditions: CD3 stimulation; for Emax: read-out: Emax proliferation (% activation); for EC50: primary human T-cells, CellTiter-Glo after 5 days, EC50 of fitted sigmoidal curve, read-out: Tcell Proliferation CD3 EC50
Procedure, shortened: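 After compound addition to medium-only plates, cells are cultured 5 days, equilibrated to room temperature, mixed with an equal volume of CellTiter-Glo 2.0 and rocked 15 min before luminescence is read. Signal reflects ATP content, taken as proportional to cell number.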

[3] = Homo sapiens, T-cell, 120 h, 5 days, normalized to reference compound A1 as stimulator control = 100%, DMSO neutral control

Q: Which results are given for CCC(=O)N[C@H]1CS(=O)(=O)c2cc(F)c(-c3nnc(C(C)(C)C)o3)cc2N(Cc2ccc(Cl)cc2)C1=O [Example 259, N-[(3R)-7-(5-tert-butyl-1,3,4-oxadiazol-2-yl)-5-[(4-chlorophenyl)methyl]-8-fluoro-1,1,4-trioxo-2,3-dihydro-1λ^6,5-benzothiazepin-3-yl]propanamide]?
A: EC50 (primary human T-cells [1]): 2.1 µM; Emax (primary human T-cells [2]; [3]): 159%; EC50 (primary human T-cells [2]; Homo sapiens, T-cell, 120 h): 0.345 µM

Q: How did the EC50 (primary human T-cells [1]) turn out when CC[C@H](O)C(=O)N[C@H]1CS(=O)(=O)c2cc(F)c(-c3nnc(C(C)(C)C)o3)cc2N(Cc2ccc(Cl)cc2)C1=O [Example 260, (2S)-N-[(3R)-7-(5-tert-butyl-1,3,4-oxadiazol-2-yl)-5-[(4-chlorophenyl)methyl]-8-fluoro-1,1,4-trioxo-2,3-dihydro-1λ^6,5-benzothiazepin-3-yl]-2-hydroxy-butanamide] was run?
A: > 20 µM

Q: What about the Emax (primary human T-cells [2]; [3]) of the same compound?
A: 82%

Q: What about the EC50 (primary human T-cells [2]; Homo sapiens, T-cell, 120 h) of the same compound?
A: 1.82 µM

Q: For CCCC(=O)N[C@H]1CS(=O)(=O)c2cc(F)c(-c3nnc(C(C)(C)C)o3)cc2N(Cc2ccc(Cl)cc2)C1=O [Example 261, N-[(3R)-7-(5-tert-butyl-1,3,4-oxadiazol-2-yl)-5-[(4-chlorophenyl)methyl]-8-fluoro-1,1,4-trioxo-2,3-dihydro-1λ^6,5-benzothiazepin-3-yl]butanamide], which EC50 (primary human T-cells [1]) is on record?
A: 2.69 µM

Q: What about the Emax (primary human T-cells [2]; [3]) of the same compound?
A: 115%

Q: And the EC50 (primary human T-cells [2]; Homo sapiens, T-cell, 120 h)?
A: 0.428 µM

Q: Which results are given for CC[C@H](NC)C(=O)N[C@H]1CS(=O)(=O)c2cc(F)c(-c3nnc(C(C)(C)C)o3)cc2N(Cc2ccc(Cl)cc2)C1=O [Example 263, (2S)-N-[(3R)-7-(5-tert-butyl-1,3,4-oxadiazol-2-yl)-5-[(4-chlorophenyl)methyl]-8-fluoro-1,1,4-trioxo-2,3-dihydro-1λ^6,5-benzothiazepin-3-yl]-2-(methylamino)butanamide]?
A: EC50 (primary human T-cells [1]): 1.4 µM; Emax proliferation (% activation) (primary human T-cells [2]; 5 days, normalized to reference compound A1 as stimulator control = 100%, DMSO neutral control): 185 % activation; EC50 (primary human T-cells [2]): < 0.162 µM

Q: Which EC50 (primary human T-cells [1]) does the source give for CC(C)(C)c1nnc(-c2cc3c(cc2F)S(=O)(=O)C[C@H](NC(=O)CCN)C(=O)N3Cc2ccc(Cl)cc2)o1 [Example 264, 3-amino-N-[(3R)-7-(5-tert-butyl-1,3,4-oxadiazol-2-yl)-5-[(4-chlorophenyl)methyl]-8-fluoro-1,1,4-trioxo-2,3-dihydro-1λ^6,5-benzothiazepin-3-yl]propanamide] here?
A: 8.1 µM

Q: And the Emax (primary human T-cells [2]; [3])?
A: 106%

Q: And the EC50 (primary human T-cells [2]; Homo sapiens, T-cell, 120 h)?
A: 2.7 µM

Q: CNCC(=O)N[C@H]1CS(=O)(=O)c2cc(F)c(-c3nnc(C(C)(C)C)o3)cc2N(Cc2ccc(Cl)cc2)C1=O [Example 265, N-[(3R)-7-(5-tert-butyl-1,3,4-oxadiazol-2-yl)-5-[(4-chlorophenyl)methyl]-8-fluoro-1,1,4-trioxo-2,3-dihydro-1λ^6,5-benzothiazepin-3-yl]-2-(methylamino)acetamide] was tested. Which EC50 (primary human T-cells [1]) did it give?
A: > 20 µM

Q: And the Emax (primary human T-cells [2]; [3])?
A: 143%

Q: And the EC50 (primary human T-cells [2]; Homo sapiens, T-cell, 120 h)?
A: 0.884 µM

Q: CC(C)(C)c1nnc(-c2cc3c(cc2F)S(=O)(=O)C[C@H](NC(=O)CCCN)C(=O)N3Cc2ccc(Cl)cc2)o1 [Example 267, 4-amino-N-[(3R)-7-(5-tert-butyl-1,3,4-oxadiazol-2-yl)-5-[(4-chlorophenyl)methyl]-8-fluoro-1,1,4-trioxo-2,3-dihydro-1λ^6,5-benzothiazepin-3-yl]butanamide] was tested. Which EC50 (primary human T-cells [1]) did it give?
A: 5.44 µM

Q: And the Emax (primary human T-cells [2]; [3])?
A: 74%

Q: And the EC50 (primary human T-cells [2]; Homo sapiens, T-cell, 120 h)?
A: 3.07 µM

Q: With CN[C@@H](C)C(=O)N[C@H]1CS(=O)(=O)c2cc(F)c(-c3nnc(C(C)(C)C)o3)cc2N(Cc2ccc(Cl)cc2)C1=O [Example 268, (2S)—N-[(3R)-7-(5-tert-butyl-1,3,4-oxadiazol-2-yl)-5-[(4-chlorophenyl)methyl]-8-fluoro-1,1,4-trioxo-2,3-dihydro-1λ^6,5-benzothiazepin-3-yl]-2-(methylamino)propanamide] as the compound, how does the EC50 (primary human T-cells [1]) read?
A: 7.83 µM

Q: And the Emax (primary human T-cells [2]; [3])?
A: 95%

Q: What about the EC50 (primary human T-cells [2]; Homo sapiens, T-cell, 120 h) of the same compound?
A: 0.249 µM

Q: How did the EC50 (primary human T-cells [1]) turn out when CN[C@@H](CO)C(=O)N[C@H]1CS(=O)(=O)c2cc(F)c(-c3nnc(C(C)(C)C)o3)cc2N(Cc2ccc(Cl)cc2)C1=O [Example 269, (2S)-3-hydroxy-2-(methylamino)-N-[(3R)-7-(5-tert-butyl-1,3,4-oxadiazol-2-yl)-5-[(4-chlorophenyl)methyl]-8-fluoro-1,1,4-trioxo-2,3-dihydro-1λ^6,5-benzothiazepin-3-yl]propanamide] was run?
A: > 10 µM

Q: What about the Emax (primary human T-cells [2]; [3]) of the same compound?
A: 67%

Q: And the EC50 (primary human T-cells [2]; Homo sapiens, T-cell, 120 h)?
A: 5.84 µM

Q: With CC(C)(C)c1nnc(-c2cc3c(cc2Br)S(=O)(=O)C[C@H](N)C(=O)N3Cc2ccc(Cl)cc2)o1 [Example 271, (3R)-3-amino-8-bromo-7-(5-tert-butyl-1,3,4-oxadiazol-2-yl)-5-[(4-chlorophenyl)methyl]-1,1-dioxo-2,3-dihydro-1λ^6,5-benzothiazepin-4-one] as the compound, how does the EC50 (primary human T-cells [1]) read?
A: 4.81 µM

Q: What about the Emax (primary human T-cells [2]; [3]) of the same compound?
A: 91%

Q: And the EC50 (primary human T-cells [2]; Homo sapiens, T-cell, 120 h)?
A: 3.19 µM

Q: What does the source list for CC(C)(C)c1nnc(-c2cc3c(cc2O)S(=O)(=O)C[C@H](N)C(=O)N3Cc2ccc(Cl)cc2)o1 [Example 273, (3R)-3-amino-7-(5-tert-butyl-1,3,4-oxadiazol-2-yl)-5-[(4-chlorophenyl)methyl]-8-hydroxy-1,1-dioxo-2,3-dihydro-1λ^6,5-benzothiazepin-4-one]?
A: EC50 (primary human T-cells [1]): 7.21 µM; Emax (primary human T-cells [2]; [3]): 61%; EC50 (primary human T-cells [2]; Homo sapiens, T-cell, 120 h): 3.19 µM

Q: CN(C)c1cc2c(cc1-c1nnc(C(C)(C)C)o1)N(Cc1ccc(Cl)cc1)C(=O)[C@@H](N)CS2(=O)=O [Example 274, (3R)-3-amino-7-(5-tert-butyl-1,3,4-oxadiazol-2-yl)-5-[(4-chlorophenyl)methyl]-8-(dimethylamino)-1,1-dioxo-2,3-dihydro-1λ^6,5-benzothiazepin-4-one] was tested. Which EC50 (primary human T-cells [1]) did it give?
A: > 20 µM

Q: What about the Emax (primary human T-cells [2]; [3]) of the same compound?
A: 10%

Q: And the EC50 (primary human T-cells [2]; Homo sapiens, T-cell, 120 h)?
A: > 20 µM

Q: Which EC50 (primary human T-cells [1]) does the source give for CC(C)(C)c1nnc(-c2cc3c(cc2N)S(=O)(=O)C[C@H](N)C(=O)N3Cc2ccc(Cl)cc2)o1 [Example 275, (3R)-3,8-diamino-7-(5-tert-butyl-1,3,4-oxadiazol-2-yl)-5-[(4-chlorophenyl)methyl]-1,1-dioxo-2,3-dihydro-1λ^6,5-benzothiazepin-4-one] here?
A: 9.15 µM

Q: And the Emax (primary human T-cells [2]; [3])?
A: 108%

Q: What about the EC50 (primary human T-cells [2]; Homo sapiens, T-cell, 120 h) of the same compound?
A: 5.49 µM

Q: Which results are given for Cc1cc2c(cc1-c1nnc(C(C)(C)C#N)o1)N(Cc1ccc(Cl)cc1)C(=O)[C@@H](N)CS2(=O)=O [Example 276, 2-[5-[(3R)-3-amino-5-[(4-chlorophenyl)methyl]-8-methyl-1,1,4-trioxo-2,3-dihydro-1λ^6,5-benzothiazepin-7-yl]-1,3,4-oxadiazol-2-yl]-2-methyl-propanenitrile]?
A: EC50 (primary human T-cells [1]): 1.06 µM; Emax (primary human T-cells [2]; [3]): 96%; EC50 (primary human T-cells [2]; Homo sapiens, T-cell, 120 h): 2.73 µM

Q: Which results are given for Cc1cc2c(cc1-c1nnc(C(C)C#N)o1)N(Cc1ccc(Cl)cc1)C(=O)[C@@H](N)CS2(=O)=O (stereo partly drawn) [Example 277, 2-[5-[(3R)-3-amino-5-[(4-chlorophenyl)methyl]-8-methyl-1,1,4-trioxo-2,3-dihydro-1λ^6,5-benzothiazepin-7-yl]-1,3,4-oxadiazol-2-yl]propanenitrile]?
A: EC50 (primary human T-cells [1]): 6.94 µM; Emax (primary human T-cells [2]; [3]): 59%; EC50 (primary human T-cells [2]; Homo sapiens, T-cell, 120 h): 8.22 µM

Q: Which EC50 (primary human T-cells [1]) does the source give for CCn1cc(-c2cc3c(cc2F)S(=O)(=O)C[C@H](N)C(=O)N3Cc2ccc(Cl)cc2)cn1 [Example 279] here?
A: 0.47 µM

Q: And the Emax (primary human T-cells [2]; [3])?
A: 90%

Q: What about the EC50 (primary human T-cells [2]; Homo sapiens, T-cell, 120 h) of the same compound?
A: 5.34 µM

Q: Which EC50 (primary human T-cells [1]) does the source give for CCn1ccc(-c2cc3c(cc2F)S(=O)(=O)C[C@H](N)C(=O)N3Cc2ccc(Cl)cc2)n1 [Example 280, (3R)-3-amino-5-[(4-chlorophenyl)methyl]-7-(1-ethylpyrazol-3-yl)-8-fluoro-1,1-dioxo-2,3-dihydro-1λ^6,5-benzothiazepin-4-one] here?
A: 0.853 µM

Q: And the Emax (primary human T-cells [2]; [3])?
A: 52%

Q: What about the EC50 (primary human T-cells [2]; Homo sapiens, T-cell, 120 h) of the same compound?
A: 19.5 µM

Q: Which results are given for CN1CC(n2cc(-c3cc4c(cc3F)S(=O)(=O)C[C@H](N)C(=O)N4Cc3ccc(Cl)cc3)cn2)CC(F)(F)C1 (stereo partly drawn) [Example 281, (3R)-3-amino-5-[(4-chlorophenyl)methyl]-7-[1-(5,5-difluoro-1-methyl-3-piperidyl)pyrazol-4-yl]-8-fluoro-1,1-dioxo-2,3-dihydro-1λ^6,5-benzothiazepin-4-one]?
A: EC50 (primary human T-cells [1]): > 10 µM; Emax (primary human T-cells [2]; [3]): 89%; EC50 (primary human T-cells [2]; Homo sapiens, T-cell, 120 h): 1.04 µM

Q: What does the source list for CC(C)(C)c1ccn(-c2cc3c(cc2F)S(=O)(=O)C[C@H](N)C(=O)N3Cc2ccc(Cl)cc2)n1 [Example 283, (3R)-3-amino-7-(3-tert-butylpyrazol-1-yl)-5-[(4-chlorophenyl)methyl]-8-fluoro-1,1-dioxo-2,3-dihydro-1λ^6,5-benzothiazepin-4-one]?
A: EC50 (primary human T-cells [1]): 1.01 µM; Emax (primary human T-cells [2]; [3]): 67%; EC50 (primary human T-cells [2]; Homo sapiens, T-cell, 120 h): 5.49 µM

Q: How did the EC50 (primary human T-cells [1]) turn out when CCc1cnn(-c2cc3c(cc2F)S(=O)(=O)C[C@H](N)C(=O)N3Cc2ccc(Cl)cc2)c1 [Example 284, (3R)-3-amino-5-[(4-chlorophenyl)methyl]-7-(4-ethylpyrazol-1-yl)-8-fluoro-1,1-dioxo-2,3-dihydro-1λ^6,5-benzothiazepin-4-one] was run?
A: > 20 µM

Q: And the Emax (primary human T-cells [2]; [3])?
A: 30%

Q: What about the EC50 (primary human T-cells [2]; Homo sapiens, T-cell, 120 h) of the same compound?
A: 5.49 µM

Q: Which results are given for CCn1cnc(-c2cc3c(cc2F)S(=O)(=O)C[C@H](N)C(=O)N3Cc2ccc(Cl)cc2)n1 [Example 285, (3R)-3-amino-5-[(4-chlorophenyl)methyl]-7-(1-ethyl-1,2,4-triazol-3-yl)-8-fluoro-1,1-dioxo-2,3-dihydro-1λ^6,5-benzothiazepin-4-one]?
A: EC50 (primary human T-cells [1]): 9.37 µM; Emax (primary human T-cells [2]; [3]): 60%; EC50 (primary human T-cells [2]; Homo sapiens, T-cell, 120 h): 5.49 µM

Q: Which EC50 (primary human T-cells [1]) does the source give for CC(C)(C)n1ccc(-c2cc3c(cc2F)S(=O)(=O)C[C@H](N)C(=O)N3Cc2ccc(Cl)cc2)n1 [Example 287, (3R)-3-amino-7-(1-tert-butylpyrazol-3-yl)-5-[(4-chlorophenyl)methyl]-8-fluoro-1,1-dioxo-2,3-dihydro-1λ^6,5-benzothiazepin-4-one] here?
A: 19.3 µM

Q: And the Emax (primary human T-cells [2]; [3])?
A: 66%

Q: What about the EC50 (primary human T-cells [2]; Homo sapiens, T-cell, 120 h) of the same compound?
A: 2.21 µM

Q: N[C@H]1CS(=O)(=O)c2cc(F)c(-c3nc4n(n3)CCNC4C(F)(F)F)cc2N(Cc2ccc(OC(F)(F)F)cc2)C1=O (stereo partly drawn) [Example 288, (3R)-3-amino-8-fluoro-1,1-dioxo-5-[[4-(trifluoromethoxy)phenyl]methyl]-7-[8-(trifluoromethyl)-5,6,7,8-tetrahydro-[1,2,4]triazolo[1,5-a]pyrazin-2-yl]-2,3-dihydro-1λ^6,5-benzothiazepin-4-one] was tested. Which EC50 (primary human T-cells [1]) did it give?
A: > 10 µM

Q: What about the Emax (primary human T-cells [2]; [3]) of the same compound?
A: 71%

Q: And the EC50 (primary human T-cells [2]; Homo sapiens, T-cell, 120 h)?
A: 4.31 µM
